SMILES strings stand for the structures.

Broadly, the melting point is the temperature of the solid-liquid transition. For the compound `Cc1ccc(-c2ccc3c(c2)C=C(C(=O)N[C@H]2CC[C@H](CN(C)C4CCOCC4)CC2)CCO3)cc1` [Compound 63, trans-7-(4-methylphenyl)-N-[4-[N-methyl-N-(tetrahydropyran-4-yl)aminomethyl]cyclohexyl]-2,3-dihydro-1-benzooxepine-4-carboxamide], the melting point was in the range of 144 to 146 °C.

Turning to `Cc1ccc(-c2ccc3c(c2)C=C(C(=O)NC2CCN(CC4=CCCCCCC4)CC2)CCO3)cc1` [Compound 57, N-(1-(cycloocten-1-yl)methylpiperidin-4-yl)-7-(4-methylphenyl)-2,3-dihydro-1-benzooxepine-4-carboxamide], the melting point lay in the range of 148 to 151 °C. For `O=C(Nc1ccc(CN2CCCCC2)cc1)c1cccc(OCc2cccc3ccccc23)c1` [Compound 86, 3-(1-naphthylmethoxy)-4′-(piperidinomethyl)benzanilide] the value was 171 to 173 °C; for `Cc1ccc(-c2ccc3c(c2)C=C(C(=O)Nc2ccc(C(=N)N)cc2)CCO3)cc1.Cl`, 294 to 296 °C. In turn, `Cc1ccc(COc2cccc(/C=C/c3ccc(CN4CCCCC4)cc3)c2)cc1` [Compound 97, (E)-1-[4-[3-(4-methylbenzyloxy)styryl]benzyl]piperidine] displayed a melting point of 87 to 88 °C. `Cc1ccc(-c2ccc3c(c2)C=C(C(=O)NC2CCN(CCC4CCCCC4)CC2)CCO3)cc1` [Compound 60, N-(1-(2-cyclohexylethyl)piperidin-4-yl)-7-(4-methylphenyl)-2,3-dihydro-1-benzooxepine-4-carboxamide] displayed a melting point of 193 to 196 °C. For `C[N+]1(Cc2ccc(NC(=O)c3cccc(OCc4ccccc4)c3)cc2)CCCCC1.[I-]` [Compound 87, 1-[4-(3-benzyloxybenzoylamino)benzyl]-1-methylpiperidinium iodide] the value was 192 to 194 °C; for `Cc1ccc(-c2ccc3c(c2)C=C(N(C)c2ccc(CN(C)C4CCOCC4)cc2)CCO3)cc1` [Compound 34, N-[4-[(N-methyl-N-(tetrahydropyran-4-yl)aminomethyl)]phenyl]-N-[7-(4-methylphenyl)-2,3-dihydro-1-benzooxepin-4-yl]methylamine], 158 to 160 °C; for `CN(Cc1ccc(NC(=O)C2=Cc3cc(OCc4cccnc4)ccc3S(=O)(=O)CC2)cc1)C1CCOCC1` [Compound 4, N-[4-[N-methyl-N-(tetrahydropyran-4-yl)aminomethyl]phenyl]-7-(3-pyridylmethoxy)-1,1-dioxo-2,3-dihydro-1-benzothiepine-4-carboxamide], 225 to 229 °C.

In the case of `CCOCCCc1ccc(Oc2ccc3c(c2)C=C(C(=O)Nc2ccc(CN(C)C4CCOCC4)cc2)CCS3(=O)=O)cc1` [Compound 125, 7-[4-(3-ethoxypropyl)phenoxy]-N-[4-[[N-methyl-N-(tetrahydro-2H-pyran-4-yl)amino]methyl]phenyl]-1,1-dioxo-2,3-dihydro-1-benzothiepine-4-carboxamide], the melting point was in the range of 156 to 157 °C. In the case of `CCCOc1cccc(Oc2ccc3c(c2)C=C(C(=O)Nc2ccc(CN(C)C4CCOCC4)cc2)CCS3(=O)=O)c1` [Compound 112, N-[4-[[N-methyl-N-(tetrahydropyran-4-yl)amino]methyl]phenyl]-7-(3-propoxyphenoxy)-1,1-dioxo-2,3-dihydro-1-benzothiepine-4-carboxamide], the melting point lay within 143 to 144 °C. The compound `CCOc1ccc(COc2ccc3c(c2)C=C(C(=O)Nc2ccc(CN(C)C4CCOCC4)cc2)CCS3(=O)=O)cc1OCC` [Compound 122, N-[4-[[N-methyl-N-(tetrahydropyran-4-yl)amino]methyl]phenyl]-7-(3,4-diethoxybenzyloxy)-1,1-dioxo-2,3-dihydro-1-benzothiepine-4-carboxamide] yielded a melting point of 186 to 188 °C.

In the case of `COC(=O)N1CCN=C1Cc1ccc(NC(=O)C2=Cc3cc(-c4ccc(C)cc4)ccc3OCC2)cc1` [Compound 96, N-[4-[(1-methoxycarbonyl-2-imidazolin-2-yl)methyl]phenyl]-7-(4-methylphenyl)-2,3-dihydro-1-benzooxepine-4-carboxamide], the melting point lay in the range of 170 to 171 °C.

The values above are taken from US6627651B1, “Cyclic compounds and uses thereof” (Takeda Chemical Industries, Ltd., priority 1999, dated 2003).
